Data taken from patent US20100098657A1, “Method of Treating Cancer with Immunomodulatory Compounds and IgG” (priority 2007, published 2010).
Like-named read-outs stand apart in the source and are kept apart here.

What was measured:
[1] = test system: Trastuzumab-coated SK-BR-3 cells; assay: NK cell cytotoxicity against Trastuzumab-coated SK-BR-3 cells; assay type: cell-based, human
granzyme B = assay: NK cell granzyme B production; assay type: cell-based, human; conditions: over that observed with IL-2 alone; dose-dependent
Procedure: (§1) To determine whether lenalidomide enhances IFN-γ production, the following assay was performed. Human IgG (Sigma), at a concentration of 100 μg/mL was coated onto 96-well, flat-bottom plates at 4° C. overnight. The unbound IgG was then washed away. […] Lenalidomide (Revlimid®, Celgene Corporation, Summit, N.J.) was added to the wells in the concentration range of 0.008-5 μM. After a 48-hour incubation, the supernatants were harvested and interferon-gamma (IFN-γ), as well as granzyme B and perforin levels were measured.

[2] = test system: Rituximab-coated Namalwa cells; assay: ADCC assay: NK cell specific lysis of Rituximab-coated Namalwa cells; assay type: cell-based, human; conditions: E:T=10:1; for EC50: Homo sapiens
Procedure: (§2) Preparation of NK cells: Purified NK cells (5×10^4) were seeded in 96-well U-bottom plates in 100 μL of 10% RPMI-1640 medium, supplemented with human AB+ serum. […] The cells were then incubated at 37° C. overnight.
(§3) Preparation of Rituximab-coated target cancer cells: Various NHL cell lines (Namalwa, Raji, Farage, and Jeko-1) were treated with 20 μg/mL Rituximab (Rituximab, Genentech, Inc.) for 30 minutes at 37° C. Excess unbound Rituximab was then removed by a washing step.
(§4) Addition of Rituximab-coated target cells to NK cells: The Rituximab-coated target cells (5×103/100 μL/well) were added to the pretreated effector NK cells at a ratio of 10:1. The cells were then co-incubated for 4 hours at 37° C.
(§5) Cytotoxicity analysis: NK cell cytotoxicity against the tumor cell lines was analyzed using a standard lactate dehydrogenase release assay (CytoTox 96 Non-radioactive Cytotoxicity Assay, Promega) to measure ADCC in a 50 μL aliquot of supernatant. The experimental release was corrected by subtraction of the spontaneous release of effector cells at the corresponding dilution. Spontaneous release from target cells alone was <15% of the maximum release as determined with target cells lysed in 1% Triton X-100.
(§6) Determination of effector: target ratio: Specific lysis for each effector-to-target (E:T) cell ratio was calculated using the following formula: % specific lysis=([experimental release−spontaneous release]/[maximum release−spontaneous release])×100.

perforin = assay: NK cell perforin production; assay type: cell-based, human; conditions: with IL-2
Procedure: as §1

[3] = test system: Rituximab-coated Farage cells; assay: Monocyte-mediated lysis (ADCC) of Rituximab-coated Farage cells; assay type: cell-based, human; conditions: E:T 50:1; lenalidomide at 10 μM; from 5%; no IL-2
Procedure: (§7) NK cells and monocytes were isolated from fresh, buffy-coated, whole blood by 30-minute incubation with RossetteSep cocktail (StemCell Technologies, Inc.) followed by Ficoll-Hypaque density gradient centrifugation. CD56+ NK cells were isolated to ˜85% purity and CD14+ monocytes were isolated to ˜80% purity as determined by flow cytometry.
as §3, §5
Determination of effector: target ratio: Specific lysis for each effector-to-target (E:T) cell ratio was calculated using the following formula: % specific lysis=([experimental release−spontaneous release]/[maximum release−spontaneous release])×100. […]

[4] = test system: Rituximab-coated Raji cells; assay: ADCC assay: NK cell specific lysis of Rituximab-coated Raji cells; assay type: cell-based, human; conditions: for EC50: Homo sapiens, Raji
Procedure: as §2, §3, §4, §5, §6
Enhancement of NK cell cytotoxicity by immunomodulatory compounds lenalidomide and pomalidomide was assessed following procedures substantially similar to those described in Section 6.3, above.

[5] = test system: Src homology-2 containing inositol 5′-phosphatase 1 (phospho-SHIP-1); assay: Immunoblot analysis of phospho-SHIP-1; assay type: cell-based; conditions: IL-12 plus IgG; lenalidomide 10 μM
Procedure: (§8) FIG. 7 is a panel of bar graphs showing the quantitation of an immunoblot comparison of cells treated with either IL-12 alone, IgG alone, IL-12 plus IgG, or IL-12 plus IgG plus lenalidomide (at 0.1 μM to 10 μM).
SHIP-1 is a negative regulator of cell proliferation, survival, and activation and also a negative regulator of Fc-γ and cytokine receptor-mediated signaling (Parihar et al., 2005, Cancer Res. 65:9099-9107). The inhibition of phospho-SHIP-1 increases IFN-γ release following NK cell stimulation with IgG and IL-12 (Parihar et al., 2005, Cancer Res. 65:9099-9107, which is incorporated by reference herein in its entirety) and thus may contribute to the mechanism of action of lenalidomide.

NK cells = assay: NK IgG-induced IFN-γ assay; assay type: cell-based, human; conditions: for EC50: Homo sapiens, read-out: EC50 of enhancement of IFN-γ production
Procedure: as §7, §1

[6] = test system: Cetuximab-coated HCT-116 cells; assay: NK cell cytotoxicity against Cetuximab-coated HCT-116 cells; assay type: cell-based, human; conditions: presence of IL-2
pPLC-γ2 = assay: Immunoblot analysis of pPLC-γ2; assay type: cell-based; conditions: IL-12 plus IgG
Procedure: as §8
Additionally, administration of the immunomodulatory compound lenalidomide was capable of increasing both pPLC-γ2 and pERK levels (FIGS. 7B and 7C). Increase in the levels of these proteins were also observed in connection with pomalidomide (FIGS. 13A and 13B). PLC-γ2 is involved in the maturation and activation of NK cells and triggers the release of lytic granules (Regunathan et al., 2006, Jour. Immunol 175:749-754, which is incorporated by reference herein in its entirety). PLC-γ2 also induces IFN-γ production and is necessary for cytotoxicity and chemokine production.

[7] = test system: Rituximab-coated CD20+ Raji cells; assay: Monocyte-mediated lysis (ADCC) of Rituximab-coated Raji cells; assay type: cell-based, human
Procedure: as §7, §3, §5, §6
To evaluate monocyte ADCC, similar methods were used to prepare the monocytes.

Fas-L = Fas-L expression on CD56+ NK cells (flow cytometry); assay type: cell-based, human
Procedure: Cytometry was undertaken on 50 μL samples containing 1×10^6 cells/mL in washing buffer, 2% FBS with 0.1% NaN3 in PBS. Fluorochrome-conjugated antibodies, unconjugated antibodies, and isotype control mAb were obtained from PharMingen (San Diego, Calif.). The cells were stained with anti-CD56-PE, anti-FasL-FITC or isotype control mAb (1 μg/10^6 cells), and analyzed by flow cytometry according to the manufacturer's instructions.

[8] = test system: Rituximab-coated Farage cells; assay: ADCC assay: NK cell specific lysis of Rituximab-coated Farage cells; assay type: cell-based, human; conditions: E:T=10:1; for EC50: Homo sapiens, Farage; for increase of cell lysis: vs Rituximab-only treated cells
Procedure: as §2, §3, §4, §5, §6

[9] = lenalidomide 1 μM with IL-2, E:T 50:1

Question: Which NK cell cytotoxicity ([1]; presence of IL-2) does the source give for `Nc1cccc2c1CN(C1CCC(=O)NC1=O)C2=O` (centres unmarked) [lenalidomide, 1-oxo-2-(2,6-dioxopiperidin-3-yl)-4-aminoisoindoline] here?
Answer: Its NK cell cytotoxicity is “significantly increases”.

Question: And the NK cell cytotoxicity ([1]; presence of IL-12)?
Answer: The NK cell cytotoxicity was “significantly increases”.

Question: What about the “granzyme B production” value (granzyme B) of the same compound?
Answer: The value was “enhanced”.

Question: And the “increase of NK cell specific lysis” value ([2]; presence of IL-2 or IL-12, vs Rituximab-only treated cells)?
Answer: The value was 5 fold.

Question: What about the EC50 ([2]; IL-2) of the same compound?
Answer: Its EC50 is 190 nM.

Question: And the EC50 ([2]; IL-12)?
Answer: The EC50 was 240 nM.

Question: What about the perforin production (perforin) of the same compound?
Answer: The perforin production was “no effect”.

Question: What about the “monocyte-mediated lysis (killing activity)” value [3] of the same compound?
Answer: The value was 20%.

Question: And the “increase of NK cell specific lysis” value ([4]; E:T=10:1, presence of IL-2 or IL-12, vs Rituximab-only treated cells)?
Answer: Its value is 2 fold.

Question: What about the EC50 ([4]; IL-2, E:T=10:1) of the same compound?
Answer: Its EC50 is 100 nM.

Question: What about the EC50 ([4]; IL-12, E:T=10:1) of the same compound?
Answer: The EC50 was 140 nM.

Question: And the NK cell cytotoxicity ([4]; presence of IL-2 (FIG. 8B/9B))?
Answer: The NK cell cytotoxicity was “significantly increases”.

Question: What about the NK cell cytotoxicity ([4]; presence of IL-12 (FIG. 8E/9E)) of the same compound?
Answer: Its NK cell cytotoxicity is “significantly increases”.

Question: What about the “levels of phospho-SHIP-1” value [5] of the same compound?
Answer: The value was “decreased”.

Question: What about the EC50 (NK cells; immobilized IgG + IL-2) of the same compound?
Answer: Its EC50 is 90 nM.

Question: What about the EC50 (NK cells; immobilized IgG + IL-12) of the same compound?
Answer: Its EC50 is 46 nM.

Question: And the “enhancement of IFN-γ production of NK cells” value (NK cells; lenalidomide 0.008-5 μM + human IgG + IL-2, vs IgG plus IL-2 alone)?
Answer: The value was 3 fold.

Question: And the “enhancement of IFN-γ production of NK cells” value (NK cells; lenalidomide 0.008-5 μM + human IgG + IL-12, vs IgG plus IL-12 alone)?
Answer: Its value is 8 fold.

Question: And the IFN-γ production (NK cells; lenalidomide alone or lenalidomide plus IgG, no IL-2/IL-12)?
Answer: Its IFN-γ production is “no IFN-γ was observed”.

Question: What about the NK cell cytotoxicity [6] of the same compound?
Answer: Its NK cell cytotoxicity is “significantly increases”.

Question: And the pPLC-γ2 levels (pPLC-γ2)?
Answer: Its pPLC-γ2 levels is “increasing”.

Question: What about the monocyte-mediated lysis ([7]; data not shown) of the same compound?
Answer: Its monocyte-mediated lysis is “enhance”.

Question: What about the “increase in tumor cell-lysis activity” value [7, 9] of the same compound?
Answer: Its value is 2 fold.

Question: And the monocyte-mediated killing [7, 9]?
Answer: The monocyte-mediated killing was over 60%.

Question: What about the “enhancement of NK cell Fas-L expression” value (Fas-L; lenalidomide 1 μM + IL-2 + immobilized IgG) of the same compound?
Answer: The value was over 2 fold.

Question: And the “NK cell Fas-L expression” value (Fas-L; lenalidomide 1 μM + IL-2 + immobilized IgG, from <2%)?
Answer: Its value is 25%.

Question: And the “percentage of CD56+ NK cells expressing Fas-L” value (Fas-L; lenalidomide 10 μM + immobilized IgG, from <5%)?
Answer: Its value is over 10%.

Question: What about the “NK cell Fas-L expression” value (Fas-L; lenalidomide 0.1-10 μM + IL-2 10 ng/mL + immobilized IgG) of the same compound?
Answer: Its value is “greater than that achieved by either agent alone”.

Question: And the EC50 ([8]; IL-2)?
Answer: The EC50 was 42 nM.

Question: And the EC50 ([8]; IL-12)?
Answer: The EC50 was 33 nM.

Question: And the “increase of cell lysis” value ([8]; IL-2)?
Answer: The value was 1.8 fold.

Question: What about the “increase of cell lysis” value ([8]; IL-12) of the same compound?
Answer: The value was 1.6 fold.
